# Assay results as given in ChEMBL document CHEMBL3822364, “Synthesis, characterization and antimicrobial activity of novel Schiff base tethered boronate esters of 1,2-O-isopropylidene-α-d-xylofuranose” (2016).
# Tests used:
# Staphylococcus aureus [1] = assay: Antibacterial activity against Staphylococcus aureus MTCC 3160 assessed as zone of inhibition at 100 ug/well measured after 24 hrs by agar well diffusion method; assay type: functional; conditions: MTCC 3160, 24 h, read-out: DIZ
# Salmonella paratyphi [2] = assay: Antibacterial activity against Salmonella paratyphi assessed as zone of inhibition at 100 ug/well measured after 24 hrs by agar well diffusion method; assay type: functional, Salmonella enterica subsp. enterica serovar Paratyphi A; conditions: Salmonella enterica, read-out: DIZ
# Staphylococcus aureus [3] = assay: Antibacterial activity against Staphylococcus aureus MTCC 3160 measured after 24 hrs by NCCL protocol based broth dilution method; assay type: functional; conditions: MTCC 3160, 24 h
# Candida albicans [4] = assay: Antifungal activity against Candida albicans MTCC 3017 assessed as zone of inhibition at 100 ug/well measured after 48 hrs by agar well diffusion method; assay type: functional; conditions: MTCC 3017, 48 h, read-out: DIZ
# Klebsiella pneumoniae [5] = assay: Antibacterial activity against Klebsiella pneumoniae MTCC 3384 measured after 24 hrs by NCCL protocol based broth dilution method; assay type: functional; conditions: MTCC 3384, 24 h
# Streptococcus mutans [6] = assay: Antibacterial activity against Streptococcus mutans MTCC 497 assessed as zone of inhibition at 100 ug/well measured after 24 hrs by agar well diffusion method; assay type: functional; conditions: MTCC 497, 24 h, read-out: DIZ
# Micrococcus luteus [7] = assay: Antibacterial activity against Micrococcus luteus MTCC 106 assessed as zone of inhibition at 100 ug/well measured after 24 hrs by agar well diffusion method; assay type: functional; conditions: MTCC 106, 24 h, read-out: DIZ
# Salmonella paratyphi [8] = assay: Antibacterial activity against Salmonella paratyphi measured after 24 hrs by NCCL protocol based broth dilution method; assay type: functional, Salmonella enterica subsp. enterica serovar Paratyphi A; conditions: Salmonella enterica
# Salmonella typhi [9] = assay: Antibacterial activity against Salmonella typhi measured after 24 hrs by NCCL protocol based broth dilution method; assay type: functional, Salmonella enterica subsp. enterica serovar Typhi; conditions: Salmonella enterica
# Aspergillus fumigatus [10] = assay: Antifungal activity against Aspergillus fumigatus MTCC 343 measured after 48 hrs by NCCL protocol based broth dilution method; assay type: functional; conditions: MTCC 343, 48 h
# Salmonella typhi [11] = assay: Antibacterial activity against Salmonella typhi assessed as zone of inhibition at 100 ug/well measured after 24 hrs by agar well diffusion method; assay type: functional, Salmonella enterica subsp. enterica serovar Typhi; conditions: Salmonella enterica, read-out: DIZ
# Micrococcus luteus [12] = assay: Antibacterial activity against Micrococcus luteus MTCC 106 measured after 24 hrs by NCCL protocol based broth dilution method; assay type: functional; conditions: MTCC 106, 24 h
# Streptococcus mutans [13] = assay: Antibacterial activity against Streptococcus mutans MTCC 497 measured after 24 hrs by NCCL protocol based broth dilution method; assay type: functional; conditions: MTCC 497, 24 h
# Klebsiella pneumoniae [14] = assay: Antibacterial activity against Klebsiella pneumoniae MTCC 3384 assessed as zone of inhibition at 100 ug/well measured after 24 hrs by agar well diffusion method; assay type: functional; conditions: MTCC 3384, 24 h, read-out: DIZ
# Aspergillus fumigatus [15] = assay: Antifungal activity against Aspergillus fumigatus MTCC 343 assessed as zone of inhibition at 100 ug/well measured after 48 hrs by agar well diffusion method; assay type: functional; conditions: MTCC 343, 48 h, read-out: DIZ
# Candida albicans [16] = assay: Antifungal activity against Candida albicans MTCC 3017 measured after 48 hrs by NCCL protocol based broth dilution method; assay type: functional; conditions: MTCC 3017, 48 h
SMILES,zone of inhibition at 100 µg/disc (Staphylococcus aureus [1]) [mm],zone of inhibition at 100 µg/disc (Salmonella paratyphi [2]) [mm],MIC (Staphylococcus aureus [3]) [µg/mL],zone of inhibition at 100 µg/disc (Candida albicans [4]) [mm],MIC (Klebsiella pneumoniae [5]) [µg/mL],zone of inhibition at 100 µg/disc (Streptococcus mutans [6]) [mm],zone of inhibition at 100 µg/disc (Micrococcus luteus [7]) [mm],MIC (Salmonella paratyphi [8]) [µg/mL],MIC (Salmonella typhi [9]) [µg/mL],MIC (Aspergillus fumigatus [10]) [µg/mL],zone of inhibition at 100 µg/disc (Salmonella typhi [11]) [mm],MIC (Micrococcus luteus [12]) [µg/mL],MIC (Streptococcus mutans [13]) [µg/mL],zone of inhibition at 100 µg/disc (Klebsiella pneumoniae [14]) [mm],zone of inhibition at 100 µg/disc (Aspergillus fumigatus [15]) [mm],MIC (Candida albicans [16]) [µg/mL]
CC1(C)O[C@H]2O[C@@H]3COB(c4cccc(/N=C/c5cc(Br)ccc5O)c4)O[C@@H]3[C@H]2O1,13,14,125,18,62.5,21,22,62.5,31.2,250,24,31.2,62.5,21,0,62.5
CC1(C)O[C@H]2O[C@@H]3COB(c4cccc(N)c4)O[C@@H]3[C@H]2O1,12,13,500,13,500,17,13,500,500,500,11,250,125,12,0,500
Cc1ccc(/N=C/c2ccc(B3OC[C@H]4O[C@@H]5OC(C)(C)O[C@@H]5[C@H]4O3)cc2)cc1,17,0,125,12,62.5,17,12,500,125,500,18,125,125,24,0,250
Cc1ccccc1B1OC[C@H]2O[C@@H]3OC(C)(C)O[C@@H]3[C@H]2O1,7,6,250,7,250,9,6,125,250,500,7,250,125,6,6,500
CC1(C)O[C@H]2O[C@@H]3COB(c4cccc(C=O)c4)O[C@@H]3[C@H]2O1,15,18,250,11,62.5,22,12,62.5,62.5,500,18,250,62.5,19,0,250
